Measurements as given in PubChem BioAssay (NCI).
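Protocol summary: plate cells (96-well), add compound at 5 concentrations, incubate 48 h, interpolate endpoints linearly. Definition used: TGI = concentration required for complete inhibition of growth.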

Assays:
Experiment in all cases: NCI anticancer screen, dose series, 48 h
U251 CNS = test system: U251 CNS
HT29 colon = test system: HT29 colon
HL-60(TB) leukemia = test system: HL-60(TB) leukemia
SR leukemia = test system: SR leukemia
HOP-18 NSCLC = test system: HOP-18 NSCLC
UO-31 renal = test system: UO-31 renal
K-562 leukemia = test system: K-562 leukemia
SNB-19 CNS = test system: SNB-19 CNS
OVCAR-5 ovarian = test system: OVCAR-5 ovarian
KM20L2 colon = test system: KM20L2 colon
NCI-H226 lung = test system: NCI-H226 lung
HCC-2998 colon = test system: HCC-2998 colon
OVCAR-4 ovarian = test system: OVCAR-4 ovarian
MALME-3M melanoma = test system: MALME-3M melanoma
SNB-75 CNS = test system: SNB-75 CNS
M14 melanoma = test system: M14 melanoma
SK-OV-3 ovarian = test system: SK-OV-3 ovarian
NCI-H460 lung = test system: NCI-H460 lung
OVCAR-8 ovarian = test system: OVCAR-8 ovarian
NCI-H23 lung = test system: NCI-H23 lung
SF-268 CNS = test system: SF-268 CNS
OVCAR-3 ovarian = test system: OVCAR-3 ovarian
COLO 205 colon = test system: COLO 205 colon
EKVX NSCLC = test system: EKVX NSCLC
RXF 393 renal = test system: RXF 393 renal
DLD-1 colon = test system: DLD-1 colon
UACC-62 melanoma = test system: UACC-62 melanoma
ACHN renal = test system: ACHN renal
UACC-257 melanoma = test system: UACC-257 melanoma
NCI-H522 lung = test system: NCI-H522 lung
DMS 273 small cell lung = test system: DMS 273 small cell lung
HCT-15 colon = test system: HCT-15 colon
KM12 colon = test system: KM12 colon
CCRF-CEM leukemia = test system: CCRF-CEM leukemia
XF 498 CNS = test system: XF 498 CNS
LXFL 529 NSCLC = test system: LXFL 529 NSCLC
SNB-78 CNS = test system: SNB-78 CNS
MOLT-4 leukemia = test system: MOLT-4 leukemia
M19-MEL melanoma = test system: M19-MEL melanoma
SF-295 CNS = test system: SF-295 CNS
A498 renal = test system: A498 renal
TK-10 renal = test system: TK-10 renal
HOP-92 NSCLC = test system: HOP-92 NSCLC
DMS 114 small cell lung = test system: DMS 114 small cell lung
SF-539 CNS = test system: SF-539 CNS
786-0 renal = test system: 786-0 renal
SK-MEL-2 melanoma = test system: SK-MEL-2 melanoma
IGROV1 ovarian = test system: IGROV1 ovarian
SN12C renal = test system: SN12C renal
SK-MEL-5 melanoma = test system: SK-MEL-5 melanoma
SW-620 colon = test system: SW-620 colon
HOP-62 NSCLC = test system: HOP-62 NSCLC
SK-MEL-28 melanoma = test system: SK-MEL-28 melanoma
LOX IMVI melanoma = test system: LOX IMVI melanoma
HCT-116 colon = test system: HCT-116 colon
A549 NSCLC = test system: A549 NSCLC
CAKI-1 renal = test system: CAKI-1 renal
RPMI-8226 leukemia = test system: RPMI-8226 leukemia
RXF-631 renal = test system: RXF-631 renal

CC1=C(c2cc(C(=O)Nc3ccc(Cl)c(Cl)c3)nc(N)n2)Sc2ccccc2N1
TGI (U251 CNS): > 100 µM
TGI (HT29 colon): > 100 µM
TGI (HL-60(TB) leukemia): > 100 µM
TGI (SR leukemia): > 100 µM
TGI (HOP-18 NSCLC): > 100 µM
TGI (UO-31 renal): > 100 µM
TGI (K-562 leukemia): > 100 µM
TGI (SNB-19 CNS): > 100 µM
TGI (OVCAR-5 ovarian): > 100 µM
TGI (KM20L2 colon): > 100 µM
TGI (NCI-H226 lung): > 100 µM
TGI (HCC-2998 colon): > 100 µM
TGI (OVCAR-4 ovarian): > 100 µM
TGI (MALME-3M melanoma): > 100 µM
TGI (SNB-75 CNS): > 100 µM
TGI (M14 melanoma): > 100 µM
TGI (SK-OV-3 ovarian): > 100 µM
TGI (NCI-H460 lung): > 100 µM
TGI (OVCAR-8 ovarian): > 100 µM
TGI (NCI-H23 lung): > 100 µM
TGI (SF-268 CNS): > 100 µM
TGI (OVCAR-3 ovarian): > 100 µM
TGI (COLO 205 colon): > 100 µM
TGI (EKVX NSCLC): > 100 µM
TGI (RXF 393 renal): > 100 µM
TGI (DLD-1 colon): > 100 µM
TGI (UACC-62 melanoma): > 100 µM
TGI (ACHN renal): > 100 µM
TGI (UACC-257 melanoma): > 100 µM
TGI (NCI-H522 lung): > 100 µM
TGI (DMS 273 small cell lung): > 100 µM
TGI (HCT-15 colon): > 100 µM
TGI (KM12 colon): > 100 µM
TGI (CCRF-CEM leukemia): > 100 µM
TGI (XF 498 CNS): > 100 µM
TGI (LXFL 529 NSCLC): > 100 µM
TGI (SNB-78 CNS): > 100 µM
TGI (MOLT-4 leukemia): > 100 µM
TGI (M19-MEL melanoma): > 100 µM
TGI (SF-295 CNS): > 100 µM
TGI (A498 renal): > 100 µM
TGI (TK-10 renal): > 100 µM
TGI (HOP-92 NSCLC): > 100 µM
TGI (DMS 114 small cell lung): > 100 µM
TGI (SF-539 CNS): > 100 µM
TGI (786-0 renal): > 100 µM
TGI (SK-MEL-2 melanoma): > 100 µM
TGI (IGROV1 ovarian): > 100 µM
TGI (SN12C renal): > 100 µM
TGI (SK-MEL-5 melanoma): > 100 µM
TGI (SW-620 colon): > 100 µM
TGI (HOP-62 NSCLC): > 100 µM
TGI (SK-MEL-28 melanoma): > 100 µM
TGI (LOX IMVI melanoma): > 100 µM
TGI (HCT-116 colon): > 100 µM
TGI (A549 NSCLC): > 100 µM
TGI (CAKI-1 renal): > 100 µM
TGI (RPMI-8226 leukemia): > 100 µM

CC1(C)CCc2cc3c(-c4ccccc4)cc(=O)oc3cc2O1
TGI (U251 CNS): > 100 µM
TGI (HT29 colon): > 100 µM
TGI (HL-60(TB) leukemia): > 100 µM
TGI (HOP-18 NSCLC): > 100 µM
TGI (UO-31 renal): > 100 µM
TGI (K-562 leukemia): > 100 µM
TGI (SNB-19 CNS): > 100 µM
TGI (KM20L2 colon): > 100 µM
TGI (NCI-H226 lung): > 100 µM
TGI (RXF-631 renal): > 100 µM
TGI (MALME-3M melanoma): > 100 µM
TGI (SNB-75 CNS): 71.5 µM
TGI (M14 melanoma): > 100 µM
TGI (SK-OV-3 ovarian): > 100 µM
TGI (NCI-H460 lung): > 100 µM
TGI (OVCAR-8 ovarian): > 100 µM
TGI (NCI-H23 lung): > 100 µM
TGI (SF-268 CNS): > 100 µM
TGI (OVCAR-3 ovarian): > 100 µM
TGI (COLO 205 colon): > 100 µM
TGI (EKVX NSCLC): > 100 µM
TGI (DLD-1 colon): > 100 µM
TGI (UACC-62 melanoma): > 100 µM
TGI (ACHN renal): > 100 µM
TGI (NCI-H522 lung): > 100 µM
TGI (DMS 273 small cell lung): > 100 µM
TGI (HCT-15 colon): > 100 µM
TGI (CCRF-CEM leukemia): > 100 µM
TGI (XF 498 CNS): > 100 µM
TGI (LXFL 529 NSCLC): > 100 µM
TGI (SNB-78 CNS): > 100 µM
TGI (MOLT-4 leukemia): > 100 µM
TGI (M19-MEL melanoma): > 100 µM
TGI (SF-295 CNS): > 100 µM
TGI (A498 renal): > 100 µM
TGI (TK-10 renal): > 100 µM
TGI (HOP-92 NSCLC): 72.3 µM
TGI (DMS 114 small cell lung): > 100 µM
TGI (SF-539 CNS): > 100 µM
TGI (SK-MEL-2 melanoma): > 100 µM
TGI (IGROV1 ovarian): > 100 µM
TGI (SN12C renal): > 100 µM
TGI (SK-MEL-5 melanoma): > 100 µM
TGI (SW-620 colon): > 100 µM
TGI (SK-MEL-28 melanoma): > 100 µM
TGI (LOX IMVI melanoma): > 100 µM
TGI (CAKI-1 renal): > 100 µM
TGI (RPMI-8226 leukemia): > 100 µM
